The source of these data is patent publication US12310975B2, “Modulators of BCL6 proteolysis and associated methods of use” (Arvinas Operations, Inc., priority 2019, dated 2025).

In this assay the target is BCL6 (Homo sapiens (Human), UniProt P41182). Put plainly: Immunofluorescence high content imaging of BCL6 degradation in T47D cells. It is filed as cell-based. The note with it: for Dmax: T47D. A digest of the protocol: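 Following a 3-day incubation with serially diluted bifunctional compounds (final top 0.1 or 1 μM), T47D cells were PFA-fixed and immunostained for BCL6. Nuclear BCL6 signal was captured on a high-content imager.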

As for `CCn1c(=O)c(OCC(=O)NC)cc2cc(Nc3nc(N4CCC(OC5CCN(c6cccc7c6C(=O)N(C6CCC(=O)NC6=O)C7=O)CC5)CC4)ncc3Cl)ccc21` (stereo not drawn) [compound 292, 2-{[6-({5-chloro-2-[4-({1-[2-(2,6-dioxopiperidin-3-yl)-1,3-dioxo-2,3-dihydro-1H-isoindol-4-yl]piperidin-4-yl}oxy)piperidin-1-yl]pyrimidin-4-yl}amino)-1-ethyl-2-oxo-1,2-dihydroquinolin-3-yl]oxy}-N-methylacetamide], the IC50 was below 10 nM and the Dmax fell in the range of 50 to 70%.
The compound `CNC(=O)COc1cc2cc(Nc3nc(N4CCC(OC5CCN(c6cccc7c6C(=O)N(C6CCC(=O)NC6=O)C7=O)CC5)CC4)ncc3Cl)ccc2n(C(C)C)c1=O` (stereo not drawn) [compound 293, 2-{[6-({5-chloro-2-[4-({1-[2-(2,6-dioxopiperidin-3-yl)-1,3-dioxo-2,3-dihydro-1H-isoindol-4-yl]piperidin-4-yl}oxy)piperidin-1-yl]pyrimidin-4-yl}amino)-2-oxo-1-(propan-2-yl)-1,2-dihydroquinolin-3-yl]oxy}-N-methylacetamide] registered an IC50 of 10 to 50 nM and a maximal degradation (Dmax) of 50 to 70%.
`CCn1c(=O)c(OCC(=O)NC)cc2cc(Nc3nc(N4CCO[C@H](COc5ccc6c(c5)C(=O)N(C5CCC(=O)NC5=O)C6=O)C4)ncc3Cl)ccc21` (stereo partly drawn) [compound 294, 2-{[6-({5-chloro-2-[(2S)-2-({[2-(2,6-dioxopiperidin-3-yl)-1,3-dioxo-2,3-dihydro-1H-isoindol-5-yl]oxy}methyl)morpholin-4-yl]pyrimidin-4-yl}amino)-1-ethyl-2-oxo-1,2-dihydroquinolin-3-yl]oxy}-N-methylacetamide]: the IC50 fell in the range of 50 to 100 nM and the Dmax was below 50%.
In turn, `CCn1c(=O)c(OCC(=O)NC)cc2cc(Nc3nc(N4CCN(CC5CCN(c6cccc(C(=O)NC7CCC(=O)NC7=O)c6F)CC5)CC4)ncc3Cl)ccc21` (stereo not drawn) [compound 295, 3-[4-({4-[5-chloro-4-({1-ethyl-3-[(methylcarbamoyl)methoxy]-2-oxo-1,2-dihydroquinolin-6-yl}amino)pyrimidin-2-yl]piperazin-1-yl}methyl)piperidin-1-yl]-N-(2,6-dioxopiperidin-3-yl)-2-fluorobenzamide] gave a concentration for half-maximal inhibition (IC50) below 10 nM and a Dmax of 50 to 70%.
Turning to `CNC(=O)COc1cc2cc(Nc3nc(N4CCN(CC5CCN(c6cccc(C(=O)NC7CCC(=O)NC7=O)c6F)CC5)CC4)ncc3Cl)ccc2n(C(C)C)c1=O` (stereo not drawn) [compound 296, 3-[4-({4-[5-chloro-4-({3-[(methylcarbamoyl)methoxy]-2-oxo-1-(propan-2-yl)-1,2-dihydroquinolin-6-yl}amino)pyrimidin-2-yl]piperazin-1-yl}methyl)piperidin-1-yl]-N-(2,6-dioxopiperidin-3-yl)-2-fluorobenzamide], the concentration for half-maximal inhibition (IC50) is below 10 nM and the maximal degradation (Dmax) was at least 70%.
Compound `CNC(=O)COc1cc2cc(Nc3nc(N4CCN(CC5CCN(c6ccc7c(c6)C(=O)N(C6CCC(=O)NC6=O)C7=O)CC5)CC4)c(C#N)cc3Cl)ccc2n(C)c1=O` (stereo not drawn) [compound 297, 2-{[6-({3-chloro-5-cyano-6-[4-({1-[2-(2,6-dioxopiperidin-3-yl)-1,3-dioxo-2,3-dihydro-1H-isoindol-5-yl]piperidin-4-yl}methyl)piperazin-1-yl]pyridin-2-yl}amino)-1-methyl-2-oxo-1,2-dihydroquinolin-3-yl]oxy}-N-methylacetamide] yielded an IC50 below 10 nM and a Dmax below 50%.
`CCn1c(=O)c(OCC(=O)NC)cc2cc(Nc3nc(N4CCC(CN5CC6(C5)CN(c5ccc7c(c5)C(=O)N(C5CCC(=O)NC5=O)C7=O)C6)CC4)ncc3Cl)ccc21` (stereo not drawn) [compound 298, 2-{[6-({5-chloro-2-[4-({6-[2-(2,6-dioxopiperidin-3-yl)-1,3-dioxo-2,3-dihydro-1H-isoindol-5-yl]-2,6-diazaspiro[3.3]heptan-2-yl}methyl)piperidin-1-yl]pyrimidin-4-yl}amino)-1-ethyl-2-oxo-1,2-dihydroquinolin-3-yl]oxy}-N-methylacetamide] gave a half-maximal inhibitory concentration (IC50) below 10 nM and a Dmax of 50 to 70%.
`CNC(=O)COc1cc2cc(Nc3nc(N4CCN(C(C)(C)C5CCN(c6ccc7c(c6)C(=O)N(C6CCC(=O)NC6=O)C7=O)CC5)CC4)ncc3Cl)ccc2n(C(C)C)c1=O` (stereo not drawn) [compound 299, 2-{[6-({5-chloro-2-[4-(2-{1-[2-(2,6-dioxopiperidin-3-yl)-1,3-dioxo-2,3-dihydro-1H-isoindol-5-yl]piperidin-4-yl}propan-2-yl)piperazin-1-yl]pyrimidin-4-yl}amino)-2-oxo-1-(propan-2-yl)-1,2-dihydroquinolin-3-yl]oxy}-N-methylacetamide] gave an IC50 of 10 to 50 nM and a Dmax of at least 70%.
Take `CCn1c(=O)c(OCC(=O)NC)cc2cc(Nc3cc(N4CCN(C(C)(C)C5CCN(c6ccc7c(c6)C(=O)N(C6CCC(=O)NC6=O)C7=O)CC5)CC4)ncc3Cl)ccc21` (stereo not drawn) [compound 300, 2-{[6-({5-chloro-2-[4-(2-{1-[2-(2,6-dioxopiperidin-3-yl)-1,3-dioxo-2,3-dihydro-1H-isoindol-5-yl]piperidin-4-yl}propan-2-yl)piperazin-1-yl]pyridin-4-yl}amino)-1-ethyl-2-oxo-1,2-dihydroquinolin-3-yl]oxy}-N-methylacetamide]: the half-maximal inhibitory concentration (IC50) is below 10 nM and the maximal degradation (Dmax) is 50 to 70%.
As for `CCn1c(=O)c(OCC(=O)NC)cc2cc(Nc3nc(N4CCN(CC5CN(C6CN(c7ccc8c(c7)C(=O)N(C7CCC(=O)NC7=O)C8=O)C6)C5)CC4)ncc3Cl)ccc21` (stereo not drawn) [compound 302, 2-{[6-({5-chloro-2-[4-({1′-[2-(2,6-dioxopiperidin-3-yl)-1,3-dioxo-2,3-dihydro-1H-isoindol-5-yl]-[1,3′-biazetidin]-3-yl}methyl)piperazin-1-yl]pyrimidin-4-yl}amino)-1-ethyl-2-oxo-1,2-dihydroquinolin-3-yl]oxy}-N-methylacetamide], the concentration for half-maximal inhibition (IC50) fell in the range of 10 to 50 nM and the Dmax was below 50%.
In the case of `CCn1c(=O)c(OCC(=O)NC)cc2cc(Nc3nc(N4CCC(OC5CC6(C5)CN(c5ccc7c(c5)C(=O)N(C5CCC(=O)NC5=O)C7=O)C6)CC4)ncc3Cl)ccc21` (stereo not drawn) [compound 303, 2-{[6-({5-chloro-2-[4-({2-[2-(2,6-dioxopiperidin-3-yl)-1,3-dioxo-2,3-dihydro-1H-isoindol-5-yl]-2-azaspiro[3.3]heptan-6-yl}oxy)piperidin-1-yl]pyrimidin-4-yl}amino)-1-ethyl-2-oxo-1,2-dihydroquinolin-3-yl]oxy}-N-methylacetamide], the IC50 is below 10 nM and the greatest degradation seen (Dmax) lay in the range of 50 to 70%.
In turn, `CCn1c(=O)c(OCC(=O)NC)cc2cc(Nc3nc(N4CCN(C(C)(C)C5CCN(c6ccc7c(c6)C(=O)N(C6CCC(=O)NC6=O)C7=O)CC5)CC4)ncc3Cl)ccc21` (stereo not drawn) [compound 304, 2-{[6-({5-chloro-2-[4-(2-{1-[2-(2,6-dioxopiperidin-3-yl)-1,3-dioxo-2,3-dihydro-1H-isoindol-5-yl]piperidin-4-yl}propan-2-yl)piperazin-1-yl]pyrimidin-4-yl}amino)-1-ethyl-2-oxo-1,2-dihydroquinolin-3-yl]oxy}-N-methylacetamide] showed an IC50 below 10 nM and a Dmax of at least 70%.

The term IC50 denotes the concentration at which inhibition is half-maximal. The Dmax is the greatest extent of degradation seen. Read a low Dmax as shallow degradation.
